Values joined by “and” are separate entries in the source; they are usually repeats but may differ in a detail not shown here. Equal values may be shown once.
Tests used:
[1] = WST-1 cytotoxicity test, MOLT-4; assay type: cell-based; conditions: human, MOLT-4 cells, 48 h, WST-1, mean ± SD of three experiments, read-out: relative viability (%) compared to untreated control; for viability at 48 h, 10 µM: MOLT-4, 10 µM; for viability at 48 h, 100 µM: MOLT-4, 100 µM
Experimental: In this study, the cytotoxic effects of nine new compounds (2, 3, 4, 5, 6, 7, 8, 9, 10) were tested on 10 human cell lines (nine cancer and one non-cancer cell line). The cell lines were treated with each compound at concentrations of 10 µM and 100 µM for 48 h. The proliferation capacity of the treated cells was determined by WST-1 test and compared against the proliferation rate of the untreated control cells (100%).
The cell lines Jurkat, MOLT-4, A2780, A549, HT-29, PANC-1, HeLa, MCF-7, SAOS-2, and MRC-5 (all purchased from Sigma Aldrich, Czech Republic) were included in this study. All cell lines were maintained according to the provider’s guidelines, and plated and treated in 96-well plates (500 to 30 × 10^3 cells per well). The tested compounds 2, 3, 4, 5, 6, 7, 8, 9, and 10 were dissolved in 0.1% DMSO and kept in 10 mM stock solutions. Before use, the stock solution was diluted in culture media at ratios of 1:100 and 1:1000. The studied cell lines were treated with the compounds 2, 3, 4, 5, 6, 7, 8, 9, and 10 at concentrations of 10 and 100 µM for 48 h. Control cells were tested in culture media with and without DMSO (0.1%). The cells were also treated with 1 µM doxorubicin as a cytotoxicity control.
The WST-1 (2-(4-iodophenyl)-3-(4-nitrophenyl)-5-(2,4-disulfophenyl)-2H-tetrazolium, monosodium salt) test (Roche, Mannheim, Germany) was used according to the manufacturer’s protocol to determine cell viability in all 10 cell lines 48 h after treatment with the tested compounds. The cells were analyzed in a Tecan Infinite M200 spectrometer (Tecan Group, Männedorf, Switzerland) at 440 nm.

[2] = Safe use evaluation in vivo (MTD, symptoms, blood biochemistry, histopathology); design: key to piloerection / ataxia / prostration / tremor / excitation / saber-like tail / stooping / hyper/hypoventilation / drop of eyelids / lacrimation / convulsion: + (mild); ++ (moderate); +++ (severe); conditions: both sexes, mouse, in vivo, ip; BALB/c mice, i.p., two males and two females per group; read-out: MTD (maximum tolerated dose)
Excerpt: (§1) Mild to moderate signs of intoxication could be observed once the MTD (maximum tolerated dose) was reached. In vivo, MTD is described as the highest dose of a given compound that can be administered before showing signs of toxicity (based on the same dose regimen or series) and whose excess would be expected to be fatal, yielding unreliable results. Therefore, a staged approach (including core and intermediate dose levels) has become a suitable strategy in this regard.
(§2) The symptoms described in Tables S1 (in Supplementary Materials) and S2 (in Supplementary Materials) diminished spontaneously within 2 h. After observing these symptoms, MTD thresholds were set at 100, 200, 100, 200, 2000, and 650 mg/kg for compounds 4, 5, 6, 7, 8, and 10, respectively. Animals receiving MTD were further examined by necropsy 48 h after administration. Plasma (reflecting biochemical changes in blood), intestine with mesentery (site of administration), and liver and kidney (elimination organs) were collected to evaluate the toxic potential of the tested compounds. For evaluation of the impact of the compounds on organ function, we performed blood biochemistry test 48 h after administration. The test focused on seven important indicators: glucose and amylase for normal function of pancreas, alanine aminotransferase (ALT), aspartate aminotransferase (AST), and alkaline phosphatase (ALP) for the normal function of liver, and urea and creatinine for the normal function of kidneys. […] According to Thoolen et al., focal necrosis can be occasionally seen in untreated rodents and therefore is not pathognomonic of hepatotoxicity, which is consistent with our findings.
(§3) Both male and female BALB/c mice (Velaz s r.o., Prague, Czech Republic) with an average weight of 21 ± 0.8 g and 21 ± 0.8 g, respectively, were selected for the safe use evaluation in vivo. The mice were housed in environmentally controlled breeding units (Faculty of Military Health Sciences vivarium; temperature 21 ± 1 °C, 12/12 h light/dark cycle) with access to food (Cerea corp., Pardubice, Czech Republic) and water ad libitum. The acclimatization period of the mice was at least 10 days before each experiment. All experimental procedures and protocols were reviewed and approved by the Ethics Committee of the Faculty of Military Health Sciences in Hradec Kralove, University of Defence in Brno. Compounds 2, 3, 4, 5, 6, 7, 8, 9, and 10 were dissolved in physiological saline solution (B. Braun Melsungen AG, Melsungen, Germany) and injected intraperitoneally (i.p.) into the corresponding mouse groups, which were composed of two males and two females. Several doses were administered to determine the maximum tolerated dose (MTD), which was assessed by close observation for signs of toxicity within the first two hours after administration of the compounds, and then regularly over the following 48 h. The observed symptoms were registered according to the laboratory Animal Science Association UK guidelines (for a detailed description, see [36]. After 48 h, the surviving animals were euthanized with CO2 and evaluated by basic macroscopic necropsy. Venous blood was collected into heparinized tubes (Scanlab Systems, Prague, Czech Republic) and the plasma was separated in a U-320R centrifuge (Boeco, Hamburg, Germany) to further evaluate the toxic potential of the tested compounds. The concentrations of glucose, urea, and creatinine and the levels of alanine aminotransferase (ALT), aspartate aminotransferase (AST), alkaline phosphatase (ALP), and amylase were evaluated in a qualified biochemical laboratory of the University Hospital Hradec Kralove (Hradec Kralove, Czech Republic). Additionally, intestine, liver, and kidney samples were collected for histopathologic examination. […]

BALB/c mice = test: as above; design: key to piloerection / ataxia / prostration / tremor / excitation / saber-like tail / stooping / hyper/hypoventilation / drop of eyelids / lacrimation / convulsion: + (mild); ++ (moderate); +++ (severe); conditions: for ALP / ALT / AST / Amylase / Creatinine / Glucose / Urea: plasma 48 h after MTD i.p.
Excerpt: as §1, §2, §3

[3] = female BALB/c mice, animals 1 and 2
[4] = female mice, at MTD i.p., animals 1 and 2
[5] = male BALB/c mice, animals 1 and 2
[6] = male mice, at MTD i.p., animals 1 and 2

Structure (SMILES) | viability at 48 h, 10 µM [1] | viability at 48 h, 100 µM [1] | MTD at 48 h [2] | ALP (BALB/c mice; [3]) | ALT (BALB/c mice; [3]) | AST (BALB/c mice; [3]) | Amylase (BALB/c mice; [3]) | Creatinine (BALB/c mice; [3]) | Glucose (BALB/c mice; [3]) | Urea (BALB/c mice; [3]) | drop of eyelids (BALB/c mice; [4]) | ALP (BALB/c mice; [5]) | ALT (BALB/c mice; [5]) | AST (BALB/c mice; [5]) | Amylase (BALB/c mice; [5]) | Creatinine (BALB/c mice; [5]) | Glucose (BALB/c mice; [5]) | Urea (BALB/c mice; [5]) | hyper/hypoventilation (BALB/c mice; [6]) | prostration (BALB/c mice; [6]) | further results
Cc1cc(OCC(O)CN2CCN(CCO)CC2)ccc1Cl.Cl.Cl (centres unmarked) [Compound 4, 1-(4-chloro-3-methylphenoxy)-3-(4-(2-hydroxyethyl)piperazin-1-yl)propan-2-ol dihydrochloride] | 88 ± 6% | 92 ± 6% | 100 mg/kg | 83 U/L and 76 U/L | 28 U/L | 93 U/L and 61 U/L | 2632 U/L and 2216 U/L | 78 µg/dL and 79 µg/dL | 237 mg/dL and 228 mg/dL | 65 mg/dL and 38 mg/dL | + | 77 U/L and 63 U/L | 41 U/L and 43 U/L | 124 U/L and 121 U/L | 1905 U/L and 2464 U/L | 79 µg/dL and 45 µg/dL | 226 mg/dL and 227 mg/dL | 39 mg/dL and 53 mg/dL | + | + | histopathological change: focal necrosis (BALB/c mice; at MTD i.p., necropsy 48 h after administration, one animal each): one small focus; prostration (BALB/c mice; [4]): +; weight at 24 h (%) (BALB/c mice; [4]): -5.7% and -4.1%; weight at 48 h (%) (BALB/c mice; [4]): -7.3% and -7.9%; weight at 24 h (%) (BALB/c mice; [6]): -2.6% and -3.0%; weight at 48 h (%) (BALB/c mice; [6]): -4.6% and -3.7%
Cl.Cl.Cl.OCCN1CCN(CCCNc2ccccc2)CC1 [Compound 5, 2-(4-(3-(phenylamino)propyl)piperazin-1-yl)ethanol trihydrochloride] | 93 ± 9% | 104 ± 7% | 200 mg/kg | 88 U/L and 80 U/L | 29 U/L and 22 U/L | 65 U/L and 44 U/L | 2531 U/L and 2489 U/L |  | 187 mg/dL and 192 mg/dL | 65 mg/dL and 58 mg/dL | + | 37 U/L and 38 U/L | 28 U/L and 29 U/L | 58 U/L and 59 U/L | 1757 U/L and 2008 U/L | 23 µg/dL and 21 µg/dL | 185 mg/dL and 175 mg/dL | 31 mg/dL and 33 mg/dL | ++ | ++ | ataxia (BALB/c mice; [4]): +; hyper/hypoventilation (BALB/c mice; [4]): ++; tremor (BALB/c mice; [4]): +; ataxia (BALB/c mice; [6]): ++ and +; drop of eyelids (BALB/c mice; [6]): +; lacrimation (BALB/c mice; [6]): +; saber-like tail (BALB/c mice; [6]): +; tremor (BALB/c mice; [6]): ++
Cl.Cl.Cl.OCCN1CCN(CCCNc2cccc3ccccc23)CC1 [Compound 6, 2-(4-(3-(naphthalen-1-ylamino)propyl)piperazin-1-yl)ethanol trihydrochloride] | 90 ± 7% | 112 ± 4% | 100 mg/kg | 86 U/L and 95 U/L | 29 U/L and 27 U/L | 53 U/L and 50 U/L | 2922 U/L and 2835 U/L | 22 µg/dL and 34 µg/dL | 199 mg/dL and 212 mg/dL | 65 mg/dL and 55 mg/dL | + | 38 U/L and 36 U/L | 28 U/L and 25 U/L | 64 U/L and 62 U/L | 2124 U/L and 2086 U/L | 45 µg/dL and 23 µg/dL | 130 mg/dL and 177 mg/dL | 42 mg/dL and 35 mg/dL | ++ | + | ataxia (BALB/c mice; [4]): ++; hyper/hypoventilation (BALB/c mice; [4]): ++; prostration (BALB/c mice; [4]): +; stooping (BALB/c mice; [4]): ++; ataxia (BALB/c mice; [6]): +; drop of eyelids (BALB/c mice; [6]): +; piloerection (BALB/c mice; [6]): +; stooping (BALB/c mice; [6]): ++; tremor (BALB/c mice; [6]): +; weight at 48 h (%) (BALB/c mice; [6]): -2.3% and -3.0%

Reference: article PMC7038073, “Substituted Piperazines as Novel Potential Radioprotective Agents” (Molecules, 2020)
